Some test systems named below: SK-MEL-28; A549; HCT-116; U-251; Hs-578T; HT-29; DU-145; NCI-H522; NCI/ADR-RES; LOX IMVI; ACHN; SR; MCF7; BT-549; K562; SNB-19; HCT-15; 786-0; SW-620; RPMI-8226.
Assay in all cases: NCI-60 cell line screen, 48 h

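Tested at 5 concentrations; 48 h exposure; 96-well plates; endpoints linearly interpolated, else capped at highest concentration. Here, GI50 denotes the concentration required for 50% inhibition of growth.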 The source made the active and inactive calls. Rule as the data show it: active = GI50 up to about 1.1 µM and inactive = higher. Bounds are passed on as bounds.

On to `CC(CCCCNC(=O)OC(C)(C)C)NC(=O)NC(C)CCCCNC(=O)OC(C)(C)C` (stereo not drawn), for which the GI50 in the assay on SK-MEL-28 is > 100 µM (inactive); in the assay on A549 it was > 100 µM (inactive); in the assay on HCT-116 it was 50.7 µM (inactive); in the assay on U-251 it was > 100 µM (inactive); in the assay with Hs-578T, > 100 µM (inactive); with HT-29, > 100 µM (inactive). The GI50 in the assay with DU-145 was > 100 µM (inactive); in the assay on NCI-H522 it was > 100 µM (inactive); in the assay with NCI/ADR-RES it was > 100 µM (inactive); with LOX IMVI it was > 100 µM (inactive); in the assay with ACHN it was > 100 µM (inactive); in the assay on SR, 99.8 µM (inactive). Further, the GI50 in the assay with MCF7 was 95.3 µM (inactive); with BT-549, > 100 µM (inactive); in the assay with K562 it was 83.2 µM (inactive); in the assay with SNB-19, > 100 µM (inactive); with HCT-15, above 100 µM; in the assay on 786-0, > 100 µM (inactive). Moreover, the GI50 in the assay with SW-620 is > 100 µM (inactive).

Consider `CCCCOC(=O)C(NC(C(=O)OCCCC)c1cc(C(C)(C)C)c(O)c(C(C)(C)C)c1)c1cc(C(C)(C)C)c(O)c(C(C)(C)C)c1` (stereo not drawn), for which the GI50 with SK-MEL-28 was > 100 µM (inactive); in the assay on RPMI-8226, 31.5 µM (inactive); in the assay on A549, > 100 µM (inactive); in the assay with HCT-116 it was 77.1 µM (inactive); with U-251, > 100 µM (inactive); in the assay with Hs-578T it was > 100 µM (inactive). In addition, the GI50 in the assay with HT-29 is 76 µM (inactive); in the assay with DU-145 it was > 100 µM (inactive); in the assay on NCI-H522, > 100 µM (inactive); in the assay on NCI/ADR-RES, > 100 µM (inactive); with LOX IMVI, > 100 µM (inactive); in the assay on ACHN it was > 100 µM (inactive). Besides, the GI50 in the assay with MCF7 was > 100 µM (inactive); with BT-549, > 100 µM (inactive); with K562 it was 56.9 µM (inactive); with SNB-19, > 100 µM (inactive); in the assay with HCT-15 it was above 100 µM; with 786-0 it was > 100 µM (inactive). Further, the GI50 in the assay with SW-620 is > 100 µM (inactive).

For `CCCCCCCc1ccc(-c2nnc(/N=N/c3ccc(OCCCCC)cc3)s2)s1`, the GI50 with SK-MEL-28, in the assay with RPMI-8226, in the assay on A549, with HCT-116, with U-251 and in the assay on Hs-578T was > 100 µM (inactive) throughout. Moreover, the GI50 with HT-29, in the assay on DU-145, in the assay on NCI-H522, with NCI/ADR-RES, in the assay with ACHN and with MCF7 was > 100 µM (inactive) throughout. The GI50 in the assay with BT-549 is > 100 µM (inactive); with SNB-19, > 100 µM (inactive); in the assay on HCT-15 it was above 100 µM; in the assay with 786-0, > 100 µM (inactive); in the assay on SW-620, > 100 µM (inactive).

For `Cc1nc2c(cc1OCc1ccccc1)C(=O)C1=C(C2=O)C2OC(=O)CC2OC1(C)C` (stereo not drawn), the GI50 in the assay with SK-MEL-28 is 0.33 µM (active); with RPMI-8226, 0.368 µM (active); in the assay with A549, 6.44 µM (inactive); in the assay with HCT-116, 0.28 µM (active); in the assay with U-251, 0.859 µM (active); in the assay on Hs-578T, 0.169 µM (active). Further, the GI50 was 0.375 µM (active) with HT-29; 1.71 µM (inactive) in the assay on DU-145; 0.149 µM (active) in the assay with NCI-H522; 3.14 µM (inactive) with NCI/ADR-RES; 0.215 µM (active) with LOX IMVI; 0.619 µM (active) in the assay with ACHN. Further, the GI50 in the assay with MCF7 was 0.173 µM (active); with BT-549, 0.564 µM (active); in the assay on SNB-19, 2.49 µM (inactive); in the assay with HCT-15, 0.228 µM; in the assay on 786-0, 0.3 µM (active); with SW-620 it was 0.322 µM (active).

`CCOP(=O)(Nc1ccccc1P(=O)(OCC)OCC)OCC`: the GI50 with SK-MEL-28, with RPMI-8226, in the assay on A549, in the assay with HCT-116, in the assay on U-251 and in the assay on Hs-578T was > 100 µM (inactive) in each case. Moreover, the GI50 in the assay with HT-29, in the assay with DU-145, with NCI-H522, in the assay on NCI/ADR-RES, with ACHN and in the assay on MCF7 was > 100 µM (inactive) in each case. Further, the GI50 was > 100 µM (inactive) with BT-549; > 100 µM (inactive) in the assay on K562; > 100 µM (inactive) in the assay with SNB-19; above 100 µM with HCT-15; > 100 µM (inactive) with 786-0; > 100 µM (inactive) in the assay on SW-620.

`CC(C)N(C(C)C)S(=O)(=O)C[C@]12CC[C@H](CC13OCC(CS(=O)(=O)c1ccccc1)O3)C2(C)C` (stereo partly drawn): the GI50 in the assay with SK-MEL-28 is > 93.5 µM (inactive); in the assay on RPMI-8226 it was 26.5 µM (inactive); in the assay on A549, 36.6 µM (inactive); with HCT-116, 35.9 µM (inactive); in the assay on U-251, 52 µM (inactive); in the assay on Hs-578T, 94.4 µM (inactive). Further, the GI50 with HT-29 is 33.4 µM (inactive); in the assay on DU-145, 74.6 µM (inactive); with NCI-H522 it was 21.8 µM (inactive); in the assay on NCI/ADR-RES it was 41.9 µM (inactive); with LOX IMVI, 64.6 µM (inactive); in the assay with ACHN, 47.8 µM (inactive). Further, the GI50 was 36 µM (inactive) in the assay on MCF7; > 85.3 µM (inactive) with BT-549; 24.5 µM (inactive) in the assay with K562; 95.7 µM (inactive) with SNB-19; 47 µM with HCT-15; 45.9 µM (inactive) with 786-0. Also, the GI50 in the assay on SW-620 is 45 µM (inactive).

Consider `COc1ccccc1C1=C2C(=O)N(C)C(c3ccccc3OC)=C2C(=O)N1C`, for which the GI50 with SK-MEL-28 is 76.6 µM (inactive); in the assay on A549, 44.1 µM (inactive); in the assay on HCT-116, 37.4 µM (inactive); with U-251, 37.9 µM (inactive); in the assay on Hs-578T, 43.8 µM (inactive); with HT-29, > 100 µM (inactive). Besides, the GI50 is > 100 µM (inactive) with DU-145; 43.2 µM (inactive) in the assay with NCI-H522; 45.7 µM (inactive) in the assay on NCI/ADR-RES; > 100 µM (inactive) in the assay on LOX IMVI; 68.5 µM (inactive) with ACHN; > 100 µM (inactive) with MCF7. Also, the GI50 in the assay on BT-549 is > 100 µM (inactive); with K562, > 100 µM (inactive); with SNB-19, 32 µM (inactive); with HCT-15, above 100 µM; in the assay with 786-0 it was 29.5 µM (inactive); in the assay on SW-620 it was > 100 µM (inactive).

For `COC(=O)Nc1nc2cc(NS(=O)(=O)c3ccc(F)cc3)ccc2[nH]1`, the GI50 was 9.75 µM (inactive) in the assay on SK-MEL-28; 15 µM (inactive) in the assay on RPMI-8226; 37.2 µM (inactive) in the assay on A549; 4.54 µM (inactive) with HCT-116; 19.1 µM (inactive) with U-251; 2.07 µM (inactive) with Hs-578T. The GI50 in the assay on HT-29 is 7.73 µM (inactive); with DU-145 it was 39.2 µM (inactive); with NCI-H522, 2.1 µM (inactive); in the assay with NCI/ADR-RES it was 13.3 µM (inactive); with LOX IMVI, 48.1 µM (inactive); in the assay on ACHN, 42.2 µM (inactive). In addition, the GI50 with MCF7 was 4.57 µM (inactive); with BT-549 it was > 100 µM (inactive); in the assay with K562 it was 4.65 µM (inactive); in the assay with SNB-19 it was 6.46 µM (inactive); in the assay on HCT-15, 8.22 µM; in the assay with 786-0, 40 µM (inactive). Besides, the GI50 in the assay with SW-620 is 6.27 µM (inactive).

Take `CCOC(=O)CCC(C(=O)OCC)n1nnc2ccc(Nc3c(C)[n+]([O-])c4cc(Cl)ccc4[n+]3[O-])cc21` (stereo not drawn): the GI50 in the assay with RPMI-8226 was 20.9 µM (inactive); in the assay with A549, 61.5 µM (inactive); in the assay on HCT-116, 25.1 µM (inactive); with U-251, 51.8 µM (inactive); in the assay on Hs-578T, 32.4 µM (inactive); in the assay with HT-29 it was 27.2 µM (inactive). The GI50 with DU-145 was 30.4 µM (inactive); with NCI-H522, 19.5 µM (inactive); in the assay with NCI/ADR-RES it was 31.8 µM (inactive); in the assay with LOX IMVI, 17.7 µM (inactive); in the assay with ACHN it was 34.7 µM (inactive); with SR it was 30.3 µM (inactive). Moreover, the GI50 in the assay with MCF7 is 17.9 µM (inactive); with BT-549, 26.5 µM (inactive); with K562, 22.6 µM (inactive); with SNB-19, > 100 µM (inactive); with HCT-15, 22.8 µM; in the assay with 786-0, 45.4 µM (inactive).

For the compound `C(=C\c1cc(-c2ccc3ccccc3n2)nc2ccc3ccccc3c12)/c1ccc2ccccc2n1`, the GI50 in the assay on SK-MEL-28 is > 100 µM (inactive); with RPMI-8226, > 100 µM (inactive); in the assay on A549, > 100 µM (inactive); with HCT-116, > 100 µM (inactive); with U-251, > 100 µM (inactive); in the assay on Hs-578T, 29.4 µM (inactive). Also, the GI50 with HT-29, with DU-145, with NCI/ADR-RES, in the assay with LOX IMVI, in the assay on ACHN and in the assay on SR was > 100 µM (inactive) throughout. Further, the GI50 with MCF7 is > 100 µM (inactive); in the assay with BT-549 it was > 100 µM (inactive); in the assay on K562, > 100 µM (inactive); in the assay on SNB-19, > 100 µM (inactive); in the assay on HCT-15 it was above 100 µM; with 786-0, > 100 µM (inactive). In addition, in the assay on SW-620, the GI50 was > 100 µM (inactive).

In the case of `Cc1nc(C)c(C(=O)NNC(N)=S)cc1C(=O)NNC(N)=S`, the GI50 in the assay with SK-MEL-28, in the assay on RPMI-8226, with A549, in the assay with HCT-116, in the assay on U-251 and in the assay with Hs-578T was > 100 µM (inactive) in each case. Besides, the GI50 with HT-29, in the assay with DU-145, in the assay with NCI-H522, in the assay with NCI/ADR-RES, with LOX IMVI and with ACHN was > 100 µM (inactive) throughout. Besides, the GI50 was > 100 µM (inactive) with MCF7; > 100 µM (inactive) in the assay on BT-549; > 100 µM (inactive) in the assay on K562; > 100 µM (inactive) in the assay with SNB-19; above 100 µM with HCT-15; > 100 µM (inactive) with 786-0. In the assay on SW-620, the GI50 was > 100 µM (inactive).
